Experimental data reported in patent publication US5004758A, “Water soluble camptothecin analogs useful for inhibiting the growth of animal tumor cells” (priority 1988, dated 1991).
Structures can show the parent of a compound that is named as a salt. Where two headings read alike, the source gives them in different places.

What was measured:
sc M5076 sarcoma = test: sc-implanted M5076 sarcoma in mice; type: in vivo, mouse; settings: for Mice without Palpable Tumors: B/ip
Text: (§1) The inoculum varies with the tumor.

iv P388 leukemia = settings: mouse, in vivo
Text: (§2) Tumors used in these studies P388 leukemia, L1210 leukemia and Lewis lung carcinoma--are maintained by serial transplantation in syngeneic strains of mice, DBA/2 for the leukemias and C57B1/6 for Lewis lung carcinoma. The leukemias are serially transplanted i.p. as ascites cell suspensions while the Lewis lung carcinoma is serially transplanted as a s.c. solid tumor.
(§3) For therapeutic trials, tumors were aseptically removed from donor mice and prepared as suspensions for implantation into test animals which for each tumor are syngeneic female F1 hybrid B6D2F1 mice (C57B1/6×DBA/2). The inoculum level varies with the type of tumor: P388 leukemia is inoculated at 10^6 cells per mouse, L1210 leukemia at 10^5 or 10^6 cells per mouse, and Lewis lung carcinoma at 0.25 ml of a 10 percent (w:v) brei. […] After tumor inoculation, mice are randomized to treatment groups of 6 to 8 mice each. In each experiment, there are three groups of untreated control mice.
(§4) Drugs are dissolved or suspended in appropriate aqueous vehicles and given i.p. or i.v. on various treatment schedules over a range of dosage levels. Animals are housed in shoebox cages and monitored daily for mortality for 30 (L1210), 45 (P388) or 60 (Lewis lung) days.

[1] = tested on: sc colon adenocarcinoma 38
Procedure: Inhibition of tumor growth (TGI) is based on mean tumor volume of groups of 7 or 8 mice relative to untreated controls. Tumors were measured between Days 12 and 19 (except Day 24 for Colon 51 and Day 31 for Colon 38).
Tumors used in these studies are maintained by serial transplantation in syngeneic strains of mice C57BL/6 for Lewis lung carcinoma, B16 melanoma and its F10 subline, M5076 sarcoma and colon adenocarcinoma 38; BALB/c for colon carcinoma 26, ADJ-PC6 plasmacytoma Madison lung carcinoma and colon adenocarcinoma 51, C3H for mammary adenocarcinoma 16/c. With the exception of the M5076 sarcoma, which is maintained as a i.p ascites cell suspension, all of the tumors were serially transplanted as s.c. solid tumors.
For therapeutic trials, tumors were aseptically removed from donor mice and prepared for implantation s.c. into test animals. The test animals for Lewis lung carcinoma, B16 melanoma and its F10 subline, M5076 sarcoma and colon adenocarcinoma 38 are syngeneic female F1 hybrid B6D2F mice (C57B1/6×DBA/2). ADJ-PC6 plasmacytoma and colon carcinoma 26 are evaluated in female BALB/c mice. Madison lung carcinoma and colon adenocarcinoma 51 are evaluated in syngeneic female F1 hybrid CD2F1 mice (BALB/c×DBA/2). Mammary adenocarcinoma 16/c is evaluated in female C3H mice. The inoculum varies with the tumor. Colon adenocarcinomas 38 is implanted as 2 mm fragments by trochar. M5076 sarcoma and ADJ-PC6 plasmacytoma are implanted as cell suspensions at 5×10^6 and 2×10^6 cells per mouse, respectively. Colon carcinoma 26, colon adenocarcinoma 51, Lewis lung carcinoma, Madison lung carcinoma and B16 melanoma and its F10 subline are implanted as tumor breis prepared as described above in a volume of 0.5 ml. The brei concentration was 10 percent (w:v) except for colon carcinoma 26 for which the brei concentration was 5 percent (w:v). After tumor inoculation, mice are randomized to treatment groups of 7 or 8 mice. In each experiment, there are three groups of untreated control mice.
Drugs are dissolved or suspended in appropriate aqueous vehicles and given by a variety of routes of administration and treatment schedules over a range of dosage levels. Animals are housed in shoebox cages and are monitored daily for mortality. […] Time for tumor measurement is dependent on the different rates of tumor growth of the different tumors: the most rapidly growing tumors such as the Lewis and Madison lung tumors, B16 melanoma and its F10 subline were measured between Days 12 and 16. The slower growing tumors were measured at later time points--17 days for M5076 sarcoma, 16 or 19 days for mammary adenocarcinoma 16/c, 19 days for ADJ-PC6 plasmacytoma and colon carcinoma 26, 24 days for colon adenocarcinoma 51, and 31 days for colon adenocarcinoma 38.

ip colon carcinoma 26 = test: ip-implanted colon carcinoma 26 in mice; type: in vivo, mouse; settings: ip Colon 26, B/ip (Days 1, 5, 9 and 13)
Text: Tumors used in these studies--P388 leukemia and its doxorbicin--and mitoxanrone-resistant sublines, L1210 leukemia, B16 melanoma, B16 melanoma/F10 subline, M5076 sarcoma and colon carcinoma 26--are maintained by serial transplantation in syngeneic strains of mice. For the leukemias, these tumors are maintained in DBA/2 mice. The M5076 sarcoma, the B16 melanoma and its F10 subline are maintained in C57B1/6 mice and the colon sarcinoma 26 is maintained in BALB/c mice. The leukemias and the M5076 sarcoma are serially transplanted i.p. as ascites cell suspensions while the B16 melanoma lines and the colon carcinoma 26 are serially transplanted as s.c. solid tumors.
For therapeutic trials, tumors are aseptically removed from donor mice and prepared as suspensions for implantation ip into test animals. The test animals for the colon carcinoma 26 are female BALB/c mice (20-25 gm). The test animals for the other tumor models are syngeneic female F1 hybrid B6D2F1 mice (C57B1/6 x DBA/2). The inoculum level varies with the type of tumor: P388 leukemia is inoculated at 10^6 cells per mouse, L1210 leukemia at 10^5 or 10^6 cells per mouse, M5076 sarcoma at 5×10^6 cells per mouse. For implantation of the B16 melanoma lines and the colon carcinoma 26, s.c. tumors from donor mice are minced and homogenized in loose fitting teflon glass homogenizer to give a tumor brei. The inoculum levels are 0.5 ml of a 10 percent (w:v) brei of the B16 melanoma lines and 0.5 ml of a 5 percent (w:v) brei of colon carcinoma 26. After tumor inoculation, mice randomized to treatment groups comprised of 6-8 mice each. In each experiment, there are three groups of untreated control mice. Drugs are dissolved or suspended in appropriate aqueous vehicles and given by a variety of routes and schedules of administration over a range of dose levels. Animals are housed in shoebox cages and are monitored daily for mortality for 30 (L1210), 45 (P388) or 60 (B16, M5076, colon 26) days.

L1210 leukemia cells = test: cells; type: cell-based, mouse; settings: Mus musculus, L1210, read-out: In Vitro Activity IC50
Procedure: Cells were exposed continuously upon cloning into medium containing 0.2 percent Noble agar. After incubation at 37° C. in a CO2 incubator for 3 days, colonies were stained with viable cell specific formazan stain and, 24 hours later, were enumerated by a colony counter (Biotran II, New Brunswick Scientific Co., Edison, N.J.) adjusted to identify colonies of more than 50 cells. The concentration which reduced cloning efficiency by 50 percent IC50) was determined by interpolation.

iv Lewis lung carcinoma = test: iv-implanted Lewis lung carcinoma in mice; type: in vivo, mouse; settings: for Increase in lifespan (ILS) / Long-Term Survivors: iv Lewis lung; for Increase in lifespan (ILS): B/ip (Days 1, 5, 9 and 13); for Long-Term Survivors: B/ip
Text: as §2, §3, §4

[2] = tested on: sc mammary adenocarcinoma 16/c; test: in vivo; set-up: species or system mouse; settings: mouse, in vivo
Text: as §1

in vivo [3] = test: in vivo; set-up: species or system mouse; settings: mouse, in vivo, ip
Text: as §1

in vivo [4] = settings: mouse, ip
Text: as §2, §3, §4

sc colon carcinoma 26 = test: sc-implanted colon carcinoma 26 in mice; type: in vivo, mouse; settings: for Tumor growth inhibition (TGI): sc Colon 26, B/ip (Days 1, 5, 9 and 13)
Text: as §1

Question: Which “TGI at three dose levels at or below a maximally tolerated dose” value (sc M5076 sarcoma; mouse, in vivo) does the source give for `CC[C@@]1(O)C(=O)OCc2c1cc1n(c2=O)Cc2cc3c(CN(C)C)c(O)ccc3nc2-1` [Compound No. 1S, (20 S) 9-Dimethylaminomethyl-10-hydroxycamptothecin Acetate Salt] here?
Answer: Its value is > 90.

Question: What about the “Tumor growth inhibition (TGI)” value (sc M5076 sarcoma; mouse, in vivo, 3.2 mg/kg) of the same compound?
Answer: Its value is 64%.

Question: What about the “Tumor growth inhibition (TGI)” value (sc M5076 sarcoma; mouse, in vivo, 5.4 mg/kg) of the same compound?
Answer: Its value is 92%.

Question: What about the “Tumor growth inhibition (TGI)” value (sc M5076 sarcoma; mouse, in vivo, 9 mg/kg) of the same compound?
Answer: Its value is 98%.

Question: What about the “Tumor growth inhibition (TGI)” value (sc M5076 sarcoma; mouse, in vivo, 15 mg/kg) of the same compound?
Answer: The value was 100%.

Question: And the “Tumor growth inhibition (TGI)” value (sc M5076 sarcoma; mouse, in vivo, 25 mg/kg)?
Answer: Its value is “toxic”.

Question: And the “Increase in Lifespan (ILS) or Inhibition of Tumor Growth (TGI)” value (“Increase in Lifespan (ILS) or Inhibition” for short) (sc M5076 sarcoma; mouse, in vivo, sc)?
Answer: The value was 100 % TGI.

Question: What about the “Mice without Palpable Tumors” value (sc M5076 sarcoma; sc M5076, 3.2 mg/kg/injection) of the same compound?
Answer: Its value is 2/8.

Question: What about the “Mice without Palpable Tumors” value (sc M5076 sarcoma; sc M5076, 5.4 mg/kg/injection) of the same compound?
Answer: Its value is 3/8.

Question: What about the “Mice without Palpable Tumors” value (sc M5076 sarcoma; sc M5076, 9 mg/kg/injection) of the same compound?
Answer: Its value is 6/8.

Question: And the “Mice without Palpable Tumors” value (sc M5076 sarcoma; sc M5076, 15 mg/kg/injection)?
Answer: The value was 8/8.

Question: What about the prolonged lifespan (sc M5076 sarcoma; sc M5076, ip Days 1, 5, 9 and 13) of the same compound?
Answer: Its prolonged lifespan is 31%.

Question: And the “Increase in lifespan (ILS)” value (iv P388 leukemia; 3.2 mg/kg)?
Answer: The value was 42%.

Question: And the “Increase in lifespan (ILS)” value (iv P388 leukemia; 5.4 mg/kg)?
Answer: The value was 58%.

Question: And the ILS (iv P388 leukemia; 15 mg/kg)?
Answer: Its ILS is 125.

Question: What about the “Increase in lifespan (ILS)” value (iv P388 leukemia; 15 mg/kg) of the same compound?
Answer: Its value is 132%.

Question: What about the cures (iv P388 leukemia; 15 mg/kg) of the same compound?
Answer: Its cures is 1/6.

Question: What about the “Long-Term Survivors” value (iv P388 leukemia; 25 mg/kg) of the same compound?
Answer: The value was 2/6.

Question: And the “Increase in Lifespan (ILS) or Inhibition” value (iv P388 leukemia; iv)?
Answer: The value was “Curative”.

Question: What about the “Increase in lifespan (ILS)” value (iv P388 leukemia; iv, 7.9 mg/kg) of the same compound?
Answer: Its value is 65%.

Question: What about the “Increase in lifespan (ILS)” value (iv P388 leukemia; iv, 14 mg/kg) of the same compound?
Answer: The value was 145%.

Question: What about the “Long-Term Survivors” value (iv P388 leukemia; iv, 19 mg/kg) of the same compound?
Answer: Its value is 2/6.

Question: And the “Increase in lifespan (ILS)” value (iv P388 leukemia; iv, 25 mg/kg)?
Answer: Its value is “toxic”.

Question: What about the “inhibition at two dose levels” value ([1]; mouse, in vivo) of the same compound?
Answer: The value was > 90.

Question: What about the “Mice without Palpable Tumors” value ([1]; mouse, in vivo, 0.78 mg/kg) of the same compound?
Answer: The value was 2/7.

Question: What about the “Mice without Palpable Tumors” value ([1]; mouse, in vivo, 1.3 mg/kg) of the same compound?
Answer: Its value is 4/7.

Question: And the “Mice without Palpable Tumors” value ([1]; mouse, in vivo, 2.2 mg/kg)?
Answer: Its value is 4/7.

Question: And the “Mice without Palpable Tumors” value ([1]; mouse, in vivo, 3.6 mg/kg)?
Answer: The value was 6/7.

Question: And the “Mice without Palpable Tumors” value ([1]; mouse, in vivo, 6 mg/kg)?
Answer: The value was 5/7.

Question: And the “Increase in Lifespan (ILS) or Inhibition” value ([1]; mouse, in vivo, sc)?
Answer: Its value is 96 % TGI.

Question: What about the “Tumor growth inhibition (TGI)” value ([1]; sc Colon 38, G/ip (Days 3, 10, 17 and 24), 3.1 mg/kg/injection) of the same compound?
Answer: The value was 0%.

Question: What about the “Tumor growth inhibition (TGI)” value ([1]; sc Colon 38, G/ip (Days 3, 10, 17 and 24), 5.2 mg/kg/injection) of the same compound?
Answer: Its value is 0%.

Question: What about the “Tumor growth inhibition (TGI)” value ([1]; sc Colon 38, G/ip (Days 3, 10, 17 and 24), 8.6 mg/kg/injection) of the same compound?
Answer: The value was 55%.

Question: And the “Tumor growth inhibition (TGI)” value ([1]; sc Colon 38, G/ip (Days 3, 10, 17 and 24), 14 mg/kg/injection)?
Answer: Its value is 78%.

Question: And the “Tumor growth inhibition (TGI)” value ([1]; sc Colon 38, G/ip (Days 3, 10, 17 and 24), 24 mg/kg/injection)?
Answer: The value was 89%.

Question: And the “Mice without Palpable Tumors” value ([1]; sc Colon 38, G/ip, 3.1 mg/kg/injection)?
Answer: The value was 2/7.

Question: What about the “Mice without Palpable Tumors” value ([1]; sc Colon 38, G/ip, 5.2 mg/kg/injection) of the same compound?
Answer: Its value is 1/7.

Question: What about the “Mice without Palpable Tumors” value ([1]; sc Colon 38, G/ip, 8.6 mg/kg/injection) of the same compound?
Answer: Its value is 3/7.

Question: What about the “Mice without Palpable Tumors” value ([1]; sc Colon 38, G/ip, 14 mg/kg/injection) of the same compound?
Answer: Its value is 5/8.

Question: And the “Mice without Palpable Tumors” value ([1]; sc Colon 38, G/ip, 24 mg/kg/injection)?
Answer: Its value is 4/7.

Question: And the “Tumor growth inhibition (TGI)” value ([1]; sc Colon 38, H/ip (every 3 hours x4 on Days 3, 10, 14 and 24), 0.78 mg/kg/injection)?
Answer: The value was 53%.

Question: And the “Tumor growth inhibition (TGI)” value ([1]; sc Colon 38, H/ip (every 3 hours x4 on Days 3, 10, 14 and 24), 1.3 mg/kg/injection)?
Answer: Its value is 68%.

Question: What about the “Tumor growth inhibition (TGI)” value ([1]; sc Colon 38, H/ip (every 3 hours x4 on Days 3, 10, 14 and 24), 2.2 mg/kg/injection) of the same compound?
Answer: The value was 74%.

Question: And the “Tumor growth inhibition (TGI)” value ([1]; sc Colon 38, H/ip (every 3 hours x4 on Days 3, 10, 14 and 24), 3.6 mg/kg/injection)?
Answer: The value was 93%.

Question: And the “Tumor growth inhibition (TGI)” value ([1]; sc Colon 38, H/ip (every 3 hours x4 on Days 3, 10, 14 and 24), 6 mg/kg/injection)?
Answer: The value was 96%.

Question: And the “Increase in lifespan (ILS)” value (ip colon carcinoma 26; 5 mg/kg/injection)?
Answer: Its value is 5%.

Question: What about the “Increase in lifespan (ILS)” value (ip colon carcinoma 26; 10 mg/kg/injection) of the same compound?
Answer: The value was 25%.

Question: What about the “Increase in lifespan (ILS)” value (ip colon carcinoma 26; 20 mg/kg/injection) of the same compound?
Answer: Its value is “toxic”.

Question: And the “Increase in lifespan (ILS)” value (ip colon carcinoma 26; 40 mg/kg/injection)?
Answer: The value was “toxic”.

Question: And the IC50 (L1210 leukemia cells)?
Answer: The IC50 was 56 nM.

Question: What about the “Increase in Lifespan (ILS) or Inhibition” value (iv Lewis lung carcinoma; iv Lewis Lung Carcinoma, optimal doses and optimal schedules, Acetate Salt) of the same compound?
Answer: Its value is “Curative”.

Question: And the “Increase in lifespan (ILS)” value (iv Lewis lung carcinoma; 3.2 mg/kg/injection)?
Answer: The value was 16%.

Question: What about the “Increase in lifespan (ILS)” value (iv Lewis lung carcinoma; 5.4 mg/kg/injection) of the same compound?
Answer: The value was 37%.

Question: And the “Increase in lifespan (ILS)” value (iv Lewis lung carcinoma; 15 mg/kg/injection)?
Answer: The value was > 200%.

Question: And the “Increase in lifespan (ILS)” value (iv Lewis lung carcinoma; 25 mg/kg/injection)?
Answer: Its value is “toxic”.

Question: And the “Long-Term Survivors” value (iv Lewis lung carcinoma; 9 mg/kg/injection)?
Answer: Its value is 1/7.

Question: And the “Long-Term Survivors” value (iv Lewis lung carcinoma; 15 mg/kg/injection)?
Answer: Its value is 7/7.

Question: And the “Mice without Palpable Tumors” value ([2]; 5 mg/kg)?
Answer: The value was 2/8.

Question: And the “Tumor growth inhibition (TGI)” value ([2]; 5 mg/kg)?
Answer: The value was 61%.

Question: What about the “Mice without Palpable Tumors” value ([2]; 10 mg/kg) of the same compound?
Answer: The value was 5/8.

Question: And the “Tumor growth inhibition (TGI)” value ([2]; 20 mg/kg)?
Answer: The value was “toxic”.

Question: And the “Mice without Palpable Tumors” value ([2]; […])?
Answer: Its value is 1/8.

Question: And the “Increase in Lifespan (ILS) or Inhibition” value ([2]; sc)?
Answer: Its value is 96 % TGI.

Question: And the “Tumor growth inhibition (TGI)” value ([2]; sc)?
Answer: The value was 73.

Question: What about the MTD (in vivo [3]) of the same compound?
Answer: Its MTD is 10 mg/kg.

Question: What about the MTD (in vivo [4]) of the same compound?
Answer: The MTD was 15 mg/kg.

Question: What about the “inhibition of tumor growth at the maximally tolerated dose” value (sc colon carcinoma 26; mouse, in vivo, sc) of the same compound?
Answer: The value was > 70.

Question: And the “Tumor growth inhibition (TGI)” value (sc colon carcinoma 26; 5 mg/kg/injection)?
Answer: The value was 39%.

Question: And the “Tumor growth inhibition (TGI)” value (sc colon carcinoma 26; 10 mg/kg/injection)?
Answer: Its value is 72%.

Question: What about the “Tumor growth inhibition (TGI)” value (sc colon carcinoma 26; 20 mg/kg/injection) of the same compound?
Answer: The value was “toxic”.

Question: And the “Increase in Lifespan (ILS) or Inhibition” value (sc colon carcinoma 26; sc Colon Carcinoma 26, optimal doses and optimal schedules)?
Answer: Its value is 72 % TGI.
